In series [1] the target is T1, human EAAT3 (Homo sapiens, UniProt P43005).
T1 construct: expressed in transfected cells; host or cells: HEK-293
T1 sequence (P43005 1-524): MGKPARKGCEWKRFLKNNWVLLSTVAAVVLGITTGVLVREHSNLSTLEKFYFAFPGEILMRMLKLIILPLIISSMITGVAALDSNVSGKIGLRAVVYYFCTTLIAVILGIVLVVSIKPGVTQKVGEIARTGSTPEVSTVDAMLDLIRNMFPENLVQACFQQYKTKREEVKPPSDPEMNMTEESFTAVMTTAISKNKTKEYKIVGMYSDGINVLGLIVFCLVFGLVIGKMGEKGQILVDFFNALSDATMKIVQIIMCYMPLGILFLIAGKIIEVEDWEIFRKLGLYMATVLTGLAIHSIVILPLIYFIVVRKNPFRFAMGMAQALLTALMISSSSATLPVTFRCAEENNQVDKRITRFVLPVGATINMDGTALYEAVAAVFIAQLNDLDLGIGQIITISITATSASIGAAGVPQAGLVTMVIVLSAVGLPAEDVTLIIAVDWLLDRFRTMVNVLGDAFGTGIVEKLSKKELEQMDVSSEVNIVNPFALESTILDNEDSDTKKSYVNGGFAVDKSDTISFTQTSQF
Nature of the series: FLIPR Membrane Potential (FMP) assay, antagonist potency at human EAAT3. The following applies: HEK-293 cells stably expressing human EAAT3; L-glutamate as agonist at EC80; antagonists applied 15 min before; Kb by Cheng-Prusoff from IC50. Type of series: cell-based. Here is the method:
The FLIPR Membrane Potential (FMP) Assay
HEK-293 cells stably expressing human EAAT3 were seeded at 55 000 cells/well in growth medium (DMEM glutamate free (Invitrogen 11960-044), 1% Pen Strep (10 ml/1 GIBCO BRL N^o 15140-023), 10% FCS non dialysed heat inactivated, 5 mg/l puromycin) in poly-D-lysine treated 96-well black microtiter plates with clear-bottom. After 24 h, the growth medium was removed and […] of Krebs buffer (140 mM NaCl, 4.7 mM KCl, 2.5 mM CaCl2, 1.2 mM MgCl2, 11 mM HEPES, 10 mM D-glucose, pH=7.4) added. The cells were then loaded by adding 100 μl/well FMP assay dye (FLIPR Membrane Potential assay reagent, Molecular Devices). The 96-well plates were then incubated at 37° C. for 1 h. The depolarization of the cells will cause more dye to enter in the cells, where it will bind to intracellular proteins and lipids and cause an increase in the fluorescence signal. Antagonist potency at human EAAT3 was determined by using L-glutamate as agonist at a concentration which gives 80% of the maximum response. The antagonists were applied 15 min before the application of the agonist L-glutamate. The assays were performed at room temperature and measurements done by using a Fluorometric Imaging Plate Reader (FLIPR, Molecular Devices) and filter #2. Responses were measured as peak increase in fluorescence minus basal (i.e. fluorescence without addition of L-glutamate). Kb was determined using the Cheng-Prusoff equation Kb=IC50/[1+(A/EC50)], where IC50 is the concentration of the antagonist producing 50% inhibition, A is the concentration of the agonist against which the IC50 is being determined (at EC80) and EC50 is the concentration of the agonist producing 50% […].

Turning to `Cc1ccc(-c2cc(C(=O)NC(C)(C)C#N)cc(-c3cncnc3C(C)C)c2)cc1F` [Example 34, N-(2-Cyanopropan-2-yl)-3-(3-fluoro-4-methylphenyl)-5-(4-propan-2-yl-pyrimidin-5-yl)-benzamide], the melting point came to 102.5 °C. This molecule registered a Kb in series [1] of 0.4 µM.
Turning to `Cc1cc(-c2cc(C(=O)NC(C)(C)C#N)cc(-c3cncnc3C(C)C)c2)ccc1F` [Example 35, N-(2-Cyanopropan-2-yl)-3-(4-fluoro-3-methylphenyl)-5-(4-propan-2-yl-pyrimidin-5-yl)-benzamide], the melting point amounted to 101 °C. This molecule had a Kb in series [1] of 0.35 µM.
In the same order, the values of `CC(C)c1ncncc1-c1cc(C(=O)NC(C)(C)C#N)cc(-c2ccc(F)cc2)c1` [Example 36, N-(2-Cyanopropan-2-yl)-3-(4-fluorophenyl)-5-(4-propan-2-yl-pyrimidin-5-yl)-benzamide] are 97 °C and 0.27 µM.
`CC(C)c1ncncc1-c1cc(C(=O)NC(C)(C)C#N)cc(-c2ccc(C(F)(F)F)cc2)c1` [Example 37, N-(2-Cyanopropan-2-yl)-3-(4-propan-2-yl-pyrimidin-5-yl)-5-[4-(trifluoromethyl)-phenyl]-benzamide]: the melting point was found to be 98 °C. In series [1], this molecule had an antagonist dissociation constant (Kb) of 0.21 µM.
`CC(C)c1ncncc1-c1cc(C(=O)NC(C)(C)C#N)cc(-c2ccc(Cl)cc2)c1` [Example 38, 3-(4-Chlorophenyl)-N-(2-cyanopropan-2-yl)-5-(4-propan-2-yl-pyrimidin-5-yl)-benzamide] had a melting point of 97 °C. Moreover, in series [1], the antagonist equilibrium constant (Kb) stood at 0.16 µM.
In the same order, the values of `CC(C)(C)NC(=O)c1cc(-c2ccc(Cl)cc2)cc(-c2cncnc2C2CC2)c1` [Example 39, N-tert-Butyl-3-(4-chlorophenyl)-5-(4-cyclopropyl-pyrimidin-5-yl)-benzamide] are 96 °C and 0.27 µM.
In the same order, the values of `CCc1ncncc1-c1cc(C(=O)NC(C)(C)C)cc(-c2ccc(Cl)cc2)c1` [Example 40, N-tert-Butyl-3-(4-chlorophenyl)-5-(4-ethyl-pyrimidin-5-yl)-benzamide] are 75 °C and 0.14 µM.

For orientation: melting point means the temperature of the solid-liquid transition. What is called Kb is the equilibrium dissociation constant of an antagonist, usually derived from a functional assay. High values mean lower antagonist affinity, low ones higher antagonist affinity.

(Values after US10005736B1, “Pyridine and pyrimidine derivatives” (Hoffmann-La Roche Inc., priority 2015, dated 2018).)
